{"source": "patent US10308643B2", "about": "“Heterocyclic compound” (Takeda Pharmaceutical Company Limited, priority 2015, dated 2019)", "key": {"HDAC1 enzyme": {"target": "T1, HDAC1 enzyme (Homo sapiens, UniProt Q13547)", "T1 construct": "transducing full length HDAC1 and HDAC6 genes into Sf-9 insect cells; GST; purchased SignalChem; host or cells: Sf-9 insect cells", "T1 sequence (Q13547 whole entry)": "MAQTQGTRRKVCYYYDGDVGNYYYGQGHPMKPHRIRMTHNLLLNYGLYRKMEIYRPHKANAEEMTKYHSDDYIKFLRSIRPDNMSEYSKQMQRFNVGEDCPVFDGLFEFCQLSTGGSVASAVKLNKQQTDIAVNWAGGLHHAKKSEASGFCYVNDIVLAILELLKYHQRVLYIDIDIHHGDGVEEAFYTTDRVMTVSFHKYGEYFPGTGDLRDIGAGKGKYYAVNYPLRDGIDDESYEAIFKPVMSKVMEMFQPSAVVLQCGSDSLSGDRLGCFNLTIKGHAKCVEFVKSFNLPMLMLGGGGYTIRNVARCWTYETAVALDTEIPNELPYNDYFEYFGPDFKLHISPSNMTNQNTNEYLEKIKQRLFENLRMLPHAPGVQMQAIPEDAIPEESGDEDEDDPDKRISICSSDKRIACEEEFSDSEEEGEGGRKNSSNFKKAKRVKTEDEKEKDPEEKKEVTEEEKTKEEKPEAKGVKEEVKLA", "assay": "HDAC1/6 Enzyme Inhibitory Assay (HDAC-Glo I/II Assay kit), HDAC1", "format": "biochemical", "details": "1 μM test compound; wells without enzyme = 100% inhibition; read-out: HDAC1 inhibitory rate (%) (1 μM)", "how_it_was_run": "(§1)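 Luminescence readout (HDAC-Glo I/II) after 20 min RT reaction of GST-purified full-length HDAC1 or HDAC6 (Sf-9 expressed) with substrate-developer; enzyme and compound preincubated 60 min RT; buffer 24 mM Tris-HCl pH 7.5, 0.6 mM glutathione, 0.01% Tween-20; no-enzyme wells = 100% inhibition.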"}, "HDAC9 enzyme": {"target": "T2, HDAC9 enzyme (Homo sapiens, UniProt Q9UKV0)", "T2 construct": "transducing full length HDAC9 gene into Sf-9 insect cells; made in house; host or cells: Sf-9 insect cells", "T2 sequence (Q9UKV0 whole entry, species assumed)": "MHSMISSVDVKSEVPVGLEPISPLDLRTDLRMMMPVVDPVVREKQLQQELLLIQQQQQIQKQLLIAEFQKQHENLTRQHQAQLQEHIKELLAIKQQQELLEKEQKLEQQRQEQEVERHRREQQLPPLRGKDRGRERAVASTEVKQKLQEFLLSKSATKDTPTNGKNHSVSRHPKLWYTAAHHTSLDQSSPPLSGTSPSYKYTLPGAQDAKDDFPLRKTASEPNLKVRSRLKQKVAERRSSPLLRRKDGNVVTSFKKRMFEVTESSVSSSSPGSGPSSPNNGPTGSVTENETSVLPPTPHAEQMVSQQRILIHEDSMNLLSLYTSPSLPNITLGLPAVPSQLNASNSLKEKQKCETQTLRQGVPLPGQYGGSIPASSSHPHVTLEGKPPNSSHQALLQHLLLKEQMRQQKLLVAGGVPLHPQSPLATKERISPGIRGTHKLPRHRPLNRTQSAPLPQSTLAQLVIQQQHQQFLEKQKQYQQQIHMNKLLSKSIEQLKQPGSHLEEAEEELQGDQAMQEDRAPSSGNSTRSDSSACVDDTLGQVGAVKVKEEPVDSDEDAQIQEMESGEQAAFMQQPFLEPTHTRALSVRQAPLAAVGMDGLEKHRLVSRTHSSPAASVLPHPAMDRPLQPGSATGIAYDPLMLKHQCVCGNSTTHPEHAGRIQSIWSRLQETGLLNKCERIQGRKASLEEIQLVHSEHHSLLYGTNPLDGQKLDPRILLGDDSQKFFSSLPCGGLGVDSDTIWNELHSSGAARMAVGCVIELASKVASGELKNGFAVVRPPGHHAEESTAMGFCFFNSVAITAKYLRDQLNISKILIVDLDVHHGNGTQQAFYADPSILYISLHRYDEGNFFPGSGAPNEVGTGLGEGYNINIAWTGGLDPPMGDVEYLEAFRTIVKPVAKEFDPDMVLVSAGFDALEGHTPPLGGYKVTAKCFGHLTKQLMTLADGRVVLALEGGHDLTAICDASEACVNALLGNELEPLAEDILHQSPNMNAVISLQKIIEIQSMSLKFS", "assay": "HDAC9 Enzyme Inhibitory Assay (HDAC-Glo class IIa)", "format": "biochemical", "details": "1 μM test compound; wells without enzyme = 100% inhibition; read-out: HDAC9 inhibitory rate (%) (1 μM)", "how_it_was_run": "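Full-length human HDAC9 from Sf-9 cells, Ni-NTA purified, preincubated with compound for 60 min at room temperature in Tris-HCl pH 7.5 buffer (MgCl2, KCl, NaCl, glutathione, Tween-20). HDAC-Glo class IIa substrate-developer added; luminescence read after 20 min, with no-enzyme wells defining 100% inhibition.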"}, "HDAC6 enzyme": {"target": "T3, HDAC6 enzyme (Homo sapiens, UniProt Q9UBN7)", "T3 construct": "transducing full length HDAC1 and HDAC6 genes into Sf-9 insect cells; GST; purchased SignalChem; host or cells: Sf-9 insect cells", "T3 sequence (Q9UBN7 1-1215)": "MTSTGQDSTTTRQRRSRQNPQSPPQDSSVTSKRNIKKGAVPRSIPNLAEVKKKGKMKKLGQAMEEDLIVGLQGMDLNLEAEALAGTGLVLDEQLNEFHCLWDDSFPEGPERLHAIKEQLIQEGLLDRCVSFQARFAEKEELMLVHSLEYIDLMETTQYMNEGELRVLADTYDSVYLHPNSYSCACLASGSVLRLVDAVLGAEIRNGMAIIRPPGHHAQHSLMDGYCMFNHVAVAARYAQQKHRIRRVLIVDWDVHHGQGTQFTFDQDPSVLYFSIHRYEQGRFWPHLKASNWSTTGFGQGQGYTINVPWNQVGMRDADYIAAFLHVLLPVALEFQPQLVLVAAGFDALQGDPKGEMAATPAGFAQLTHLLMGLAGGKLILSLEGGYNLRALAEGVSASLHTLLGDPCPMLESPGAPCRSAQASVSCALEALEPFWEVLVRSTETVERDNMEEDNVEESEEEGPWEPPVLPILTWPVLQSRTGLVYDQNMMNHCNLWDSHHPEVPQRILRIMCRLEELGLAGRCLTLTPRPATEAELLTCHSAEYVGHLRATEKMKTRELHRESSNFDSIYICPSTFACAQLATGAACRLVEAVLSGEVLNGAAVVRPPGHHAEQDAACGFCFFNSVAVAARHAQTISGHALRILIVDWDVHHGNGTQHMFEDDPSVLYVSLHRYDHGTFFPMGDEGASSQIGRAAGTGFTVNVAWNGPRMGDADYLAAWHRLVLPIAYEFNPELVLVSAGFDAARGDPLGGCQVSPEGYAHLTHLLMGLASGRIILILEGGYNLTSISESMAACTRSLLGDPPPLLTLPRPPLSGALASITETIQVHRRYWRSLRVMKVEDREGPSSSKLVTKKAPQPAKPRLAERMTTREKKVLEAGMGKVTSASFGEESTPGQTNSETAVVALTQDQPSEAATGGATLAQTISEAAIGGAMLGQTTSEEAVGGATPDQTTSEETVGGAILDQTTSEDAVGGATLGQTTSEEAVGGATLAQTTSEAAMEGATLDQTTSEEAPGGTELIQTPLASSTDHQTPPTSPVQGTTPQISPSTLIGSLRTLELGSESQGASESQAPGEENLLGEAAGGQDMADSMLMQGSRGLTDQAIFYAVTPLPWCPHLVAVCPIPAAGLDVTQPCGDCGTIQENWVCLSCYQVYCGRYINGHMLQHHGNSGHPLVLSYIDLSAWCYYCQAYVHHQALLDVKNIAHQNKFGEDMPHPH", "assay": "HDAC1/6 Enzyme Inhibitory Assay (HDAC-Glo I/II Assay kit), HDAC6", "format": "biochemical", "details": "1 μM test compound; wells without enzyme = 100% inhibition; read-out: HDAC6 inhibitory rate (%) (1 μM)", "how_it_was_run": "as §1"}}, "data": [{"smiles": "O=C(N[C@@H]1CCCC[C@H]1N1Cc2ccc(-c3noc(C(F)(F)F)n3)cc2C1=O)[C@@H]1CCCO1", "note": "[Example 90, (2S)-N-((1R,2R)-2-(1-oxo-6-(5-(trifluoromethyl)-1,2,4-oxadiazol-3-yl)-1,3-dihydro-2H-isoindol-2-yl)cyclohexyl)tetrahydrofuran-2-carboxamide]", "values": [{"measurement": "inhibition at 1 µM", "setting": "HDAC1 enzyme", "value": 5, "unit": "%"}, {"measurement": "inhibition at 1 µM", "setting": "HDAC9 enzyme", "value": 37, "unit": "%"}, {"measurement": "inhibition at 1 µM", "setting": "HDAC6 enzyme", "value": 97, "unit": "%"}, {"measurement": "melting point", "value": 132, "unit": "°C"}]}, {"smiles": "O=C(N[C@H]1CCOC[C@@H]1N1Cc2ccc(-c3noc(C(F)(F)F)n3)cc2C1=O)[C@H]1CCOC1", "note": "[Example 210, (3S)-N-((3R,4S)-3-(1-oxo-6-(5-(trifluoromethyl)-1,2,4-oxadiazol-3-yl)-1,3-dihydro-2H-isoindol-2-yl)tetrahydro-2H-pyran-4-yl)tetrahydrofuran-3-carboxamide]", "values": [{"measurement": "inhibition at 1 µM", "setting": "HDAC1 enzyme", "value": 10, "unit": "%"}, {"measurement": "inhibition at 1 µM", "setting": "HDAC9 enzyme", "value": 56, "unit": "%"}, {"measurement": "inhibition at 1 µM", "setting": "HDAC6 enzyme", "value": 55, "unit": "%"}]}, {"smiles": "O=C(N[C@H]1CCCC[C@@H]1N1Cc2ccc(-c3noc(C(F)(F)F)n3)cc2C1=O)[C@@H]1CCCO1", "note": "[Example 217, (2S)-N-((1S,2S)-2-(1-oxo-6-(5-(trifluoromethyl)-1,2,4-oxadiazol-3-yl)-1,3-dihydro-2H-isoindol-2-yl)cyclohexyl)tetrahydrofuran-2-carboxamide]", "values": [{"measurement": "inhibition at 1 µM", "setting": "HDAC1 enzyme", "value": 21, "unit": "%"}, {"measurement": "inhibition at 1 µM", "setting": "HDAC9 enzyme", "value": 53, "unit": "%"}, {"measurement": "inhibition at 1 µM", "setting": "HDAC6 enzyme", "value": 82, "unit": "%"}]}, {"smiles": "O=C(N[C@H]1CCCC[C@@H]1N1Cc2ccc(-c3noc(C(F)(F)F)n3)cc2C1=O)[C@H]1CCCO1", "note": "[Example 218, (2R)-N-((1S,2S)-2-(1-oxo-6-(5-(trifluoromethyl)-1,2,4-oxadiazol-3-yl)-1,3-dihydro-2H-isoindol-2-yl)cyclohexyl)tetrahydrofuran-2-carboxamide]", "values": [{"measurement": "inhibition at 1 µM", "setting": "HDAC1 enzyme", "value": 5, "unit": "%"}, {"measurement": "inhibition at 1 µM", "setting": "HDAC9 enzyme", "value": 29, "unit": "%"}, {"measurement": "inhibition at 1 µM", "setting": "HDAC6 enzyme", "value": 44, "unit": "%"}]}, {"smiles": "CC(C)(O)C(=O)N[C@H]1CCCC[C@@H]1N1Cc2ccc(-c3noc(C(F)(F)F)n3)cc2C1=O", "note": "[Example 219, 2-hydroxy-2-methyl-N-((1S,2S)-2-(1-oxo-6-(5-(trifluoromethyl)-1,2,4-oxadiazol-3-yl)-1,3-dihydro-2H-isoindol-2-yl)cyclohexyl)propanamide]", "values": [{"measurement": "inhibition at 1 µM", "setting": "HDAC1 enzyme", "value": 5, "unit": "%"}, {"measurement": "inhibition at 1 µM", "setting": "HDAC9 enzyme", "value": 50, "unit": "%"}, {"measurement": "inhibition at 1 µM", "setting": "HDAC6 enzyme", "value": 40, "unit": "%"}]}, {"smiles": "O=C(N[C@H]1COCC[C@@H]1N1Cc2ccc(-c3noc(C(F)(F)F)n3)cc2C1=O)[C@@H]1CC1(F)F", "note": "[Example 220, (1S)-2,2-difluoro-N-((3R,4S)-4-(1-oxo-6-(5-(trifluoromethyl)-1,2,4-oxadiazol-3-yl)-1,3-dihydro-2H-isoindol-2-yl)tetrahydro-2H-pyran-3-yl)cyclopropanecarboxamide]", "values": [{"measurement": "inhibition at 1 µM", "setting": "HDAC1 enzyme", "value": 23, "unit": "%"}, {"measurement": "inhibition at 1 µM", "setting": "HDAC9 enzyme", "value": 65, "unit": "%"}, {"measurement": "inhibition at 1 µM", "setting": "HDAC6 enzyme", "value": 84, "unit": "%"}]}, {"smiles": "O=C(N[C@H]1COCC[C@@H]1N1Cc2ccc(-c3noc(C(F)(F)F)n3)cc2C1=O)[C@H]1CC1(F)F", "note": "[Example 221, (1R)-2,2-difluoro-N-((3R,4S)-4-(1-oxo-6-(5-(trifluoromethyl)-1,2,4-oxadiazol-3-yl)-1,3-dihydro-2H-isoindol-2-yl)tetrahydro-2H-pyran-3-yl)cyclopropanecarboxamide]", "values": [{"measurement": "inhibition at 1 µM", "setting": "HDAC1 enzyme", "value": 34, "unit": "%"}, {"measurement": "inhibition at 1 µM", "setting": "HDAC9 enzyme", "value": 86, "unit": "%"}, {"measurement": "inhibition at 1 µM", "setting": "HDAC6 enzyme", "value": 90, "unit": "%"}]}]}
